According to patent US20250277059A1, “ANTIBODY USED TO TREAT CORONAVIRUS INFECTION” (priority 2022, published 2025):

What was measured:
[1] = test system: pseudo-typed virus having S protein of SARS COV_2 S VOC202012/01 (B.1.1.7: α variant); format: cell-based, SARS-COV-2
[2] = test system: pseudo-typed virus having S protein of SARS COV_2 S 501Y.V2 (B.1.351: β variant); format: cell-based, SARS-COV-2

N=C(N)c1ccc2cc(OC(=O)c3ccc(N=C(N)N)cc3)ccc2c1 [Nafamostat, nafamostat]
infection inhibiting effect on α variant-type virus [1]: exhibited infection inhibiting effects | infection inhibiting effect on β variant-type virus [2]: exhibited infection inhibiting effects
